Assay results reported in patent US20210346329A1, “TCA CYCLE INTERMEDIATES AND METHODS OF USE THEREOF” (IMBRIA PHARMACEUTICALS, INC., priority 2018, published 2021).
Where “and” joins values, the source holds several entries; their conditions need not be identical. Equal values may be shown once. Read-outs that look alike come from different tables or passages of the source.

From the text: Concentrations versus time data are plotted in FIG. 1 through FIG. 6.
[1] = SC 10 mg/kg, individual rat (777)
[2] = SC 10 mg/kg, individual rats 776, 777, 778, 10 mg/kg
[3] = SC 50 mg/kg, individual rats 779, 780, 781, 50 mg/kg
[4] = SC 100 mg/kg, individual rats 782, 783, 784, 100 mg/kg
[5] = SC 100 mg/kg, individual rats 782, 783, 100 mg/kg

O=[13C](O)[13CH2][13CH2][13C](=O)O [^13C4-succinate]
Time post dosing at which maximum plasma concentrations were observed (SC 10 mg/kg): 15 min
Plasma concentration (SC 10 mg/kg, 0.50 hr, individual rats 776, 777, 778, 10 mg/kg): 1280 ng/mL (2×) and 854 ng/mL
Plasma concentration (SC 10 mg/kg, 0.50 hr, mean): 1138 ng/mL
Plasma concentration (SC 10 mg/kg, 1.0 hr, individual rats 776, 777, 778, 10 mg/kg): 430 ng/mL and 220 ng/mL and 415 ng/mL
Plasma concentration (SC 10 mg/kg, 1.0 hr, mean): 355 ng/mL
Plasma concentration (SC 10 mg/kg, 2.0 hr, individual rats 776, 777, 778, 10 mg/kg): 28.5 ng/mL and 10.6 ng/mL and 23.2 ng/mL
Plasma concentration (SC 10 mg/kg, 2.0 hr, mean): 20.8 ng/mL
Plasma concentration (SC 10 mg/kg, 4.0 hr, mean): 7.59 ng/mL
AUC∞ [1]: 1030 ng·h/mL
Dose-normalized AUC∞ [1]: 103 kg·ng·h/mL/mg
t1/2 [1]: 27.2 min
tmax (SC 10 mg/kg, individual rats 776, 777, 778): 15 min
Bioavailability (SC 10 mg/kg, individual rats 776, 777, 778, vs average IV dose-normalized AUClast, 10 mg/kg): 98.9% and 47.7% and 76.7%
AUClast [2]: 2131 ng·h/mL and 1027 ng·h/mL and 1653 ng·h/mL
Cmax [2]: 5090 ng/mL and 2090 ng/mL and 3260 ng/mL
MRTlast [2]: 30.2 min and 29.3 min and 31.6 min
AUClast (SC 10 mg/kg, mean): 1604 ng·h/mL
Cmax (SC 10 mg/kg, mean): 3480 ± 1512 ng/mL
MRTlast (SC 10 mg/kg, mean): 30.4 min
tmax (SC 10 mg/kg, mean): 15 min
Bioavailability (SC 10 mg/kg, mean, vs average IV dose-normalized AUClast): 74.4±25.7%
Dose-normalized AUClast (SC 10 mg/kg, mean, 10 mg/kg): 160 ± 55.4 kg·ng·h/mL/mg
Dose-normalized AUClast (SC 10 mg/kg, mean, listed as 13C4-Succinate, 10 mg/kg): 160 kg·ng·h/mL/mg
Time post dosing at which maximum plasma concentrations were observed (SC 50 mg/kg): 15 min
Plasma concentration (SC 50 mg/kg, 0.50 hr, individual rats 779, 780, 781, 50 mg/kg): 9750 ng/mL and 15500 ng/mL and 11100 ng/mL
Plasma concentration (SC 50 mg/kg, 0.50 hr, mean): 12117 ng/mL
Plasma concentration (SC 50 mg/kg, 1.0 hr, individual rats 779, 780, 781, 50 mg/kg): 1020 ng/mL and 2420 ng/mL and 2020 ng/mL
Plasma concentration (SC 50 mg/kg, 1.0 hr, mean): 1820 ng/mL
Plasma concentration (SC 50 mg/kg, 2.0 hr, individual rats 779, 780, 781, 50 mg/kg): 102 ng/mL and 163 ng/mL and 122 ng/mL
Plasma concentration (SC 50 mg/kg, 2.0 hr, mean): 129 ng/mL
Plasma concentration (SC 50 mg/kg, 4.0 hr, individual rats 779, 780, 781, 50 mg/kg): 15.1 ng/mL and 10.3 ng/mL and 12.3 ng/mL
Plasma concentration (SC 50 mg/kg, 4.0 hr, mean): 12.6 ng/mL
Plasma concentration (SC 50 mg/kg, 8.0 hr, mean): 18.8 ng/mL
tmax (SC 50 mg/kg, individual rats 779, 780, 781): 15 min
Bioavailability (SC 50 mg/kg, individual rats 779, 780, 781, vs average IV dose-normalized AUClast, 50 mg/kg): 78.0% and 116% and 98.7%
AUClast [3]: 8405 ng·h/mL and 12496 ng·h/mL and 10632 ng·h/mL
Cmax [3]: 14800 ng/mL and 18300 ng/mL and 18900 ng/mL
Dose-normalized AUClast [3]: 168 kg·ng·h/mL/mg and 250 kg·ng·h/mL/mg and 213 kg·ng·h/mL/mg
MRTlast [3]: 33.5 min and 31.8 min and 30.3 min
AUClast (SC 50 mg/kg, mean): 10511 ng·h/mL
Cmax (SC 50 mg/kg, mean): 17333 ± 2214 ng/mL
MRTlast (SC 50 mg/kg, mean): 31.9 min
tmax (SC 50 mg/kg, mean): 15 min
Bioavailability (SC 50 mg/kg, mean, vs average IV dose-normalized AUClast): 97.6±19.0%
Dose-normalized AUClast (SC 50 mg/kg, mean, 50 mg/kg): 210 ± 41.0 kg·ng·h/mL/mg
Dose-normalized AUClast (SC 50 mg/kg, mean, listed as 13C4-Succinate, 50 mg/kg): 210 kg·ng·h/mL/mg
Time post dosing at which maximum plasma concentrations were observed (SC 100 mg/kg): 15 min
Plasma concentration (SC 100 mg/kg, 0.50 hr, individual rats 782, 783, 784, 100 mg/kg): 24500 ng/mL and 13900 ng/mL and 25200 ng/mL
Plasma concentration (SC 100 mg/kg, 0.50 hr, mean): 21200 ng/mL
Plasma concentration (SC 100 mg/kg, 1.0 hr, individual rats 782, 783, 784, 100 mg/kg): 6840 ng/mL and 4980 ng/mL and 7750 ng/mL
Plasma concentration (SC 100 mg/kg, 1.0 hr, mean): 6523 ng/mL
Plasma concentration (SC 100 mg/kg, 2.0 hr, individual rats 782, 783, 784, 100 mg/kg): 364 ng/mL and 435 ng/mL and 779 ng/mL
Plasma concentration (SC 100 mg/kg, 2.0 hr, mean): 526 ng/mL
Plasma concentration (SC 100 mg/kg, 4.0 hr, individual rats 782, 783, 784, 100 mg/kg): 103 ng/mL and 40.8 ng/mL and 52.9 ng/mL
Plasma concentration (SC 100 mg/kg, 4.0 hr, mean): 65.6 ng/mL
Plasma concentration (SC 100 mg/kg, 8.0 hr, mean): 25.9 ng/mL
tmax (SC 100 mg/kg, individual rats 782, 783, 784): 15 min
Bioavailability (SC 100 mg/kg, individual rats 782, 783, 784, vs average IV dose-normalized AUClast, 100 mg/kg): 115% (2×) and 72.0%
AUClast [4]: 24683 ng·h/mL and 15518 ng·h/mL and 24689 ng·h/mL
Cmax [4]: 37900 ng/mL and 23100 ng/mL and 32000 ng/mL
Dose-normalized AUClast [4]: 247 hr · kg · ng/mL/mg (2×) and 155 hr · kg · ng/mL/mg
MRTlast [4]: 35.8 min and 37.7 min and 39.6 min
AUC∞ [5]: 24719 ng·h/mL and 15530 ng·h/mL
Dose-normalized AUC∞ [5]: 247 kg·ng·h/mL/mg and 155 kg·ng·h/mL/mg
t1/2 [5]: 84 min and 44.8 min
